Biological target: human sodium ion channel 1.7 (hNav1.7) (Homo sapiens, UniProt Q15858)
Experiment: Blocking effect against sodium ion channel Nav1.7, IonFlux16 auto patch clamp in hNav1.7 HEK293 cells
Assay type: cell-based
Conditions: hNav1.7 HEK293 cells; inhibition of peak current after 50 seconds treatment; eight concentrations; read-out: IC50

Chain of human sodium ion channel 1.7 (hNav1.7) (Q15858 whole entry): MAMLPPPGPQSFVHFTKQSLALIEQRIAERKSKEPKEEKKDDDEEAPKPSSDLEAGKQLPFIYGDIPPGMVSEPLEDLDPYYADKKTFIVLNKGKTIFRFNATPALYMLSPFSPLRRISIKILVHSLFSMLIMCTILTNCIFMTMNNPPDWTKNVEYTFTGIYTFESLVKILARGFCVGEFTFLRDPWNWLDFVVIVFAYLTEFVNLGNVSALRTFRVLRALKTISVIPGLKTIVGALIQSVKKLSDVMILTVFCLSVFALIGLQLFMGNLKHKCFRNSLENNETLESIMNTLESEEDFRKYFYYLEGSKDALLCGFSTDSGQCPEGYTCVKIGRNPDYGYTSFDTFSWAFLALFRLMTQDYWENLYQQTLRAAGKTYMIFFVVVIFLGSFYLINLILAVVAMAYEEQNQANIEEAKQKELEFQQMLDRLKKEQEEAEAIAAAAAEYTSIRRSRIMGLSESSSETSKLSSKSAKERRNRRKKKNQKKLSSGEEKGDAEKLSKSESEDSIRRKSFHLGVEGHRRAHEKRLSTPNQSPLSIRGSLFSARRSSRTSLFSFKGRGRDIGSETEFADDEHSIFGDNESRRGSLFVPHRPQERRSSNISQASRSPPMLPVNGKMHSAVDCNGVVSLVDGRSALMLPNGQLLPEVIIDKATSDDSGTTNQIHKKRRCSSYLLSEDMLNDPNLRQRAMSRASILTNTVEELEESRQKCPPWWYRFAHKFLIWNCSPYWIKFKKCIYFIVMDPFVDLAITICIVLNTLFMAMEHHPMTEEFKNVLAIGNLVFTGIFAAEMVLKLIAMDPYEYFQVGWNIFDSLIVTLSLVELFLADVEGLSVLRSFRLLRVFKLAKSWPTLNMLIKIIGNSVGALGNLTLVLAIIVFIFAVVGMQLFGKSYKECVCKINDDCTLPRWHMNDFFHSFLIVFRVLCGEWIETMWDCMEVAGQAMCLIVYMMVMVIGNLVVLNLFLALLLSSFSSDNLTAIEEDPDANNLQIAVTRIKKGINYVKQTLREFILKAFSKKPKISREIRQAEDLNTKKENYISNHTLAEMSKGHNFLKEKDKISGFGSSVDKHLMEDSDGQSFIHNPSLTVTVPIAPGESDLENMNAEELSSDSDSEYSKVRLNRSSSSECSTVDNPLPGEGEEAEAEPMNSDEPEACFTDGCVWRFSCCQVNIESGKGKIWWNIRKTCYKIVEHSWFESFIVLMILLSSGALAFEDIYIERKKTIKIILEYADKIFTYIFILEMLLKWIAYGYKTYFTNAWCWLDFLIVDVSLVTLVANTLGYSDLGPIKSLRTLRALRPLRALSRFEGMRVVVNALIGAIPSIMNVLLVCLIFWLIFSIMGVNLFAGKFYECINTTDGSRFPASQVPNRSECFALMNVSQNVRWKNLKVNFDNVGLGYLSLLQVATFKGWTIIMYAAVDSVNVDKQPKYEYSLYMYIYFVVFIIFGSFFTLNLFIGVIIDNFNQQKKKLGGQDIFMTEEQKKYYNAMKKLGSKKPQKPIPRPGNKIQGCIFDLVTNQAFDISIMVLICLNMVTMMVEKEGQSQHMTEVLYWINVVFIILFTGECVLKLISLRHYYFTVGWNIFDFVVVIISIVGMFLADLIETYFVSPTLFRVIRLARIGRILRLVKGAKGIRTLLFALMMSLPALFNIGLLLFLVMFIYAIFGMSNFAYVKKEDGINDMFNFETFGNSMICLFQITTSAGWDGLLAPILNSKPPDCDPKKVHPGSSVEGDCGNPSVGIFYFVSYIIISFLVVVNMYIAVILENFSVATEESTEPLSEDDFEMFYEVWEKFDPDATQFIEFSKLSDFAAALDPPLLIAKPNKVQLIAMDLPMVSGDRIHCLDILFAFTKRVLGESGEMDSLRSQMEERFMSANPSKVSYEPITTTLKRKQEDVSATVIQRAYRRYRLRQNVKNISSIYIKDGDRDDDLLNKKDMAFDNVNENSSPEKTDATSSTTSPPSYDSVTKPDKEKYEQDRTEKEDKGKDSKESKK

## CS(=O)(=O)NC(=O)c1cc(Cl)c(-n2nc(Cl)c3cc(-c4cccnc4F)ccc32)cc1F [Example 244, 5-chloro-4-(3-chloro-5-(2-fluoropyridin-3-yl)-1H-indazol-1-yl)-2-fluoro-N-(methylsulfonyl)benzamide]
  IC50: 2320 nM

## CS(=O)(=O)NC(=O)c1cc(Cl)c(-n2nc(Cl)c3cc(Nc4ccccc4)ccc32)cc1F [Example 27, 5-chloro-4-(3-chloro-5-(phenylamino)-1H-indazol-1-yl)-2-fluoro-N-(methylsulfonyl)benzamide]
  IC50: 7710 nM

## O=S(=O)(Nc1cscn1)c1cc(F)c(-n2nc(Cl)c3cc(C(F)(F)F)ccc32)cc1F [Example 279, 4-(3-chloro-5-(trifluoromethyl)-1H-indazol-1-yl)-2,5-difluoro-N-(thiazol-4-yl)benzenesulfonamide]
  IC50: > 10000 nM

## CS(=O)(=O)NC(=O)c1cc(Cl)c(-n2cc(-c3cccc(Cl)c3)c3cccnc32)cc1F [Example 221, 5-chloro-4-(3-(3-chlorophenyl)-1H-pyrrolo[2,3-b]pyridin-1-yl)-2-fluoro-N-(methylsulfonyl)benzamide]
  IC50: 970 nM

## CS(=O)(=O)NC(=O)c1cc(Cl)c(-n2nc(-c3cccc(Cl)c3)c3ccccc32)cc1F [Example 170, 5-chloro-4-(3-(3-chlorophenyl)-1H-indazol-1-yl)-2-fluoro-N-(methylsulfonyl)benzamide]
  IC50: 70 nM

## COc1ccc2c(c1)c(Cl)cn2-c1cc(F)c(C(=O)NS(C)(=O)=O)cc1Cl [Example 268, 5-chloro-4-(3-chloro-5-methoxy-1H-indol-1-yl)-2-fluoro-N-(methylsulfonyl)benzamide]
  IC50: 608 nM

## CS(=O)(=O)NC(=O)c1cc(Cl)c(-n2cc(-c3cccc(F)c3)c3cc(Cl)cnc32)cc1F [Example 190, 5-chloro-4-(5-chloro-3-(3-fluorophenyl)-1H-pyrrolo[2,3-b]pyridin-1-yl)-2-fluoro-N-(methylsulfonyl)benzamide]
  IC50: 170 nM

## Cn1nccc1-c1nn(-c2cc(F)c(S(=O)(=O)Nc3cscn3)cc2Cl)c2ccc(Cl)cc12 [Example 282, 5-chloro-4-(5-chloro-3-(1-methyl-1H-pyrazol-5-yl)-1H-indazol-1-yl)-2-fluoro-N-(thiazol-4-yl)benzenesulfonamide]
  IC50: 1650 nM

## CS(=O)(=O)NC(=O)c1cc(Cl)c(-n2nc(Cl)c3cc(O)ccc32)cc1F [Example 16, 5-chloro-4-(3-chloro-5-hydroxy-1H-indazol-1-yl)-2-fluoro-N-(methylsulfonyl)benzamide]
  IC50: > 10000 nM

## CS(=O)(=O)NC(=O)c1cc(Cl)c(-n2nc(-c3cc(F)cc(Cl)c3)c3cc(F)ccc32)cc1F [Example 157, 5-chloro-4-(3-(3-chloro-5-fluorophenyl)-5-fluoro-1H-indazol-1-yl)-2-fluoro-N-(methylsulfonyl)benzamide]
  IC50: 100 nM

## CS(=O)(=O)NC(=O)c1cc(Cl)c(-n2nc(N3CCOCC3)c3cc(Cl)ccc32)cc1F [Example 86, 5-chloro-4-(5-chloro-3-morpholino-1H-indazol-1-yl)-2-fluoro-N-(methylsulfonyl)benzamide]
  IC50: > 10000 nM

## CS(=O)(=O)NC(=O)c1ccc(-n2nc(-c3cccc(F)c3)c3cc(Cl)ccc32)c(C#N)c1 [Example 103, 4-(5-chloro-3-(3-fluorophenyl)-1H-indazol-1-yl)-3-cyano-N-(methylsulfonyl)benzamide]
  IC50: 2170 nM

## CS(=O)(=O)NC(=O)c1cc(Cl)c(-n2nc(Cl)c3c(Cl)c(OCc4ccccc4F)ccc32)cc1F [Example 32, 5-chloro-4-(3,4-dichloro-5-((2-fluorobenzyl)oxy)-1H-indazol-1-yl)-2-fluoro-N-(methylsulfonyl)benzamide]
  IC50: 158 nM

## CC(Oc1ccc2c(c1)c(Cl)nn2-c1cc(F)c(C(=O)NS(C)(=O)=O)cc1Cl)c1ccccc1 (stereo not shown) [Example 33, 5-chloro-4-(3-chloro-5-(1-phenylethoxy)-1H-indazol-1-yl)-2-fluoro-N-(methylsulfonyl)benzamide]
  IC50: 214 nM

## CS(=O)(=O)NC(=O)c1cc(Cl)c(-n2nc(-c3ccc(F)c(F)c3)c3cc(F)ccc32)cc1F [Example 161, 5-chloro-4-(3-(3,4-difluorophenyl)-5-fluoro-1H-indazol-1-yl)-2-fluoro-N-(methylsulfonyl)benzamide]
  IC50: 120 nM

## CS(=O)(=O)NC(=O)c1cc(Cl)c(-n2cc(-c3ccc(Cl)cc3)c3cccnc32)cc1F [Example 224, 5-chloro-4-(3-(4-chlorophenyl)-1H-pyrrolo[2,3-b]pyridin-1-yl)-2-fluoro-N-(methylsulfonyl)benzamide]
  IC50: 280 nM

## CS(=O)(=O)NC(=O)c1cc(Cl)c(-n2nc(-c3ccc(F)cc3F)c3ccccc32)cc1F [Example 176, 5-chloro-4-(3-(2,4-difluorophenyl)-1H-indazol-1-yl)-2-fluoro-N-(methylsulfonyl)benzamide]
  IC50: 200 nM

## CS(=O)(=O)NC(=O)c1cc(Cl)c(-n2nc(-c3cccc(Cl)c3)c3cc(Cl)ccc32)cc1F [Example 72, 5-chloro-4-(5-chloro-3-(3-chlorophenyl)-1H-indazol-1-yl)-2-fluoro-N-(methylsulfonyl)benzamide]
  IC50: 61 nM

## CS(=O)(=O)NC(=O)c1cc(Cl)c(-n2nc(Cl)c3cc(-c4ccc(F)c(C#N)c4)ccc32)cc1F [Example 239, 5-chloro-4-(3-chloro-5-(3-cyano-4-fluorophenyl)-1H-indazol-1-yl)-2-fluoro-N-(methylsulfonyl)benzamide]
  IC50: 283 nM

## CS(=O)(=O)NC(=O)c1cc(Cl)c(-n2nc(Cl)c3cc(-c4ccncc4)ccc32)cc1F [Example 232, 5-chloro-4-(3-chloro-5-(pyridin-4-yl)-1H-indazol-1-yl)-2-fluoro-N-(methylsulfonyl)benzamide]
  IC50: 1000 to 3000 nM

## COc1ccc(-c2nn(-c3cc(Cl)c(C(=O)NS(C)(=O)=O)cc3F)c3ccc(Cl)cc23)cc1 [Example 108, 2-chloro-4-(5-chloro-3-(4-methoxyphenyl)-1H-indazol-1-yl)-5-fluoro-N-(methylsulfonyl)benzamide]
  IC50: 1480 nM

## COc1ccc2c(c1)c(-c1ccc(Cl)cc1F)nn2-c1cc(F)c(C(=O)NS(C)(=O)=O)cc1Cl [Example 169, 5-chloro-4-(3-(4-chloro-2-fluorophenyl)-5-methoxy-1H-indazol-1-yl)-2-fluoro-N-(methylsulfonyl)benzamide]
  IC50: 180 nM

## CS(=O)(=O)NC(=O)c1cc(Cl)c(-n2cc(-c3ccc(F)cc3F)c3cc(F)cnc32)cc1F [Example 203, 5-chloro-4-(3-(2,4-difluorophenyl)-5-fluoro-1H-pyrrolo[2,3-b]pyridin-1-yl)-2-fluoro-N-(methylsulfonyl)benzamide]
  IC50: 80 nM

## CS(=O)(=O)NC(=O)c1cc(Cl)c(-n2cc(-c3ccccc3Cl)c3cccnc32)cc1F [Example 225, 5-chloro-4-(3-(2-chlorophenyl)-1H-pyrrolo[2,3-b]pyridin-1-yl)-2-fluoro-N-(methylsulfonyl)benzamide]
  IC50: 460 nM

## CS(=O)(=O)NC(=O)c1ccc(-n2nc(-c3ccc(F)cc3)c3cc(Cl)ccc32)c(C#N)c1 [Example 101, 4-(5-chloro-3-(4-fluorophenyl)-1H-indazol-1-yl)-3-cyano-N-(methylsulfonyl)benzamide]
  IC50: 3020 nM

## CS(=O)(=O)NC(=O)c1cc(Cl)c(-n2nc(-c3ccc(F)cc3Cl)c3cc(Cl)ccc32)cc1F [Example 74, 5-chloro-4-(5-chloro-3-(2-chloro-4-fluorophenyl)-1H-indazol-1-yl)-2-fluoro-N-(methylsulfonyl)benzamide]
  IC50: 20 nM

## CS(=O)(=O)NC(=O)c1cc(Cl)c(-n2cc(Cl)c3cc(-c4cccc(F)c4)cnc32)cc1F [Example 262, 5-chloro-4-(3-chloro-5-(3-fluorophenyl)-1H-pyrrolo[2,3-b]pyridin-1-yl)-2-fluoro-N-(methylsulfonyl)benzamide]
  IC50: 210 nM

## CS(=O)(=O)NC(=O)c1ccc(-n2nc(-c3cccc(C(F)(F)F)c3)c3cc(Cl)ccc32)c(C#N)c1 [Example 98, 4-(5-chloro-3-(3-(trifluoromethyl)phenyl)-1H-indazol-1-yl)-3-cyano-N-(methylsulfonyl)benzamide]
  IC50: 887 nM
